The source of these data is patent EP3388419A1, “GLI1 INHIBITORS AND USES THEREOF” (Leadiant Biosciences SA, priority 2017, dated 2018).

The structures appear in SMILES notation. Entries after “also recorded” stand apart in the source; their conditions may differ. Where two headings read alike, the source gives them in different places.

Assay [1] concerns Gli1 protein. Description: Effect on Gli1 protein expression by Western blotting in SAG-stimulated NIH3T3 cells. It counts as cell-based, murine. Set-up: key to Effect on Gli1 protein: +++: Gli1 protein level strongly reduced (almost abolished) at 24 and 48 h compared to DMSO control; ++: Gli1 protein level reduced (more than 50%) at 48 h compared to DMSO control; +: Gli1 protein level is weakly reduced (about 50%) at 48 h compared to DMSO control. The following applies: compound 1 µM; for Effect on Gli1 protein: NIH3T3 cells stimulated with SAG (100nM), 24 or 48 h, compared to DMSO control; for Gli1 protein level: Figure 1, NIH3T3 cells, 48 h, reference GANT61 5 µM, result in words. On the procedure: The effect of compounds on Gli1 protein expression was evaluated in HH-responsive murine NIH3T3 cells by Western blotting. Both Gli1 and Ptch1 are targets of the Gli, and Gli1 in particular is considered the best read-out of HH signaling activity.
Briefly, NIH3T3 were stimulated for 48 h with 3-chloro-N-[trans-4-(methylamino)cyclohexyl]-N-[[3-(4-pyridinyl)phenyl]methyl]-benzo[b]thiophene-2-carboxamide (SAG) (100nM) to activate the endogenous HH pathway, and treated for 24 or 48 h with each compound (1 µM). NIH3T3 cells were lysed and subjected to Western blotting using a specific anti-GLI1 antibody. The effect of each compound was compared to that of GANT61 (5 µM), a well known Gli1/2 inhibitor (Lauth M. et al. PNAS 2007, 104, 8455).

Assay [2] relates to A375 (metastatic melanoma cell line). Description: Cancer cell proliferation, MTT-based assay, A375. Conditions: Homo sapiens, A-375, A375, 72 h. On the procedure: (§1) The effects on cancer cell proliferation were tested for those compounds shown to be able to reduce Gli1 protein level in NIH3T3 cells. Two different commercial cancer cell lines were used: A375 (metastatic melanoma cell line) and DAOY (medulloblastoma cell line).
(§2) To test the effects on cancer cell proliferation, both cell types were treated for 72 h with increasing doses (10 nM, 50 nM, 100 nM, 250 nM, 500 nM, 1 µM, 5 µM) of each compound and counted at the end of the treatment with an MTT-based assay. IC50 was calculated by GraphPad Prism software.
For orientation: Tetrazolium dyes change colour on reduction, which living cells bring about.

Assay [3] relates to DAOY (medulloblastoma cell line). Description: Cancer cell proliferation, MTT-based assay, DAOY. Conditions: Homo sapiens, 72 h. As for the experimental part:
as §1, §2

Where [4] appears, read: Table 3, commercially available compounds.
Where [5] appears, read: Table 3, commercially available compounds, read-out: Effect on proliferation A375 (IC50; nM).
The mark [6] stands for this setting: Table 3, commercially available compounds, read-out: Effect on proliferation DAOY (IC50; nM).
[7] abbreviates: Figure 2 dose-response curve, read-out: IC50.
[8] abbreviates: Table 2, new compounds, read-out: Effect on proliferation A375 (IC50; nM).
Setting [9] is: Table 2, new compounds, read-out: Effect on proliferation DAOY (IC50; nM).

Turning to `CCCC(=O)NC(c1ccc(N(CC)CC)cc1)c1cc(Cl)c2cccnc2c1O` (stereo not shown) [SST0771AA1, Butanamide, N-[(5-chloro-8-hydroxy-7-quinolinyl)[4-(diethylamino)phenyl]methyl]-], the “Effect on Gli1 protein” value in assay [1] (setting [4]) was “+++”. Also, the IC50 in assay [2] (setting [5]) and in assay [3] (setting [6]) was 300 to 1000 nM throughout.
For `c1cnc2c3c(ccc2c1)CN(C1CCCCC1)CO3` [SST0892AA1, 3-cyclohexyl-3,4-dihydro-2H-[1,3]oxazino[5,6-h]quinoline], in assay [1], the Gli1 protein level entry is “drastic reduction of Gli1 protein level; also recorded: abolish Gli1 protein level”. Further, the “Effect on Gli1 protein” value in assay [1] (Table 2, new compounds) is recorded as “+++”. For the same molecule, the IC50 in assay [2] (setting [7]) is 300 nM; in assay [2] (setting [8]), no more than 300 nM; in assay [3] (setting [7]) it was 500 nM; in assay [3] (setting [9]), 300 to 1000 nM.
Regarding `Oc1c(C(NCCc2ccccc2)c2ccc(Cl)cc2Cl)ccc2cccnc12` (stereo not shown) [SST0827AA1, 7-((2,4-dichlorophenyl)(phenethylamino)methyl)quinolin-8-ol], in assay [1], the Gli1 protein level result is “drastic reduction of Gli1 protein level; also recorded: abolish Gli1 protein level”. Moreover, the “Effect on Gli1 protein” value in assay [1] (Table 2, new compounds) is listed as “+++”. In addition, the IC50 in assay [2] (setting [8]) and in assay [3] (setting [9]) was no more than 300 nM throughout.
With `COc1ccc(C(NC(=O)C(C)C)c2cc(Cl)c3cccnc3c2O)cc1OC` (stereo not shown) [SST0769AA1, Propanamide, N-[(5-chloro-8-hydroxy-7-quinolinyl)(3,4-dimethoxyphenyl)methyl]-2-methyl-], the “Effect on Gli1 protein” value in assay [1] (setting [4]) is “++ (Gli1 protein level reduced (more than 50%) at 48 h compared to DMSO control)”. Further, the IC50 in assay [2] (setting [5]) and in assay [3] (setting [6]) was 300 to 1000 nM throughout.
`CCCCC(=O)NC(c1ccc(C(C)C)cc1)c1cc(Cl)c2cccnc2c1O` (stereo not shown) [SST0774AA1, Pentanamide, N-[(5-chloro-8-hydroxy-7-quinolinyl)[4-(1-methylethyl)phenyl]methyl]-]: in assay [1] (setting [4]), the “Effect on Gli1 protein” value is given as “+++”. The IC50 in assay [2] (setting [5]) and in assay [3] (setting [6]) was no more than 300 nM each time.
On to `CCCCN1COc2c(cc(Cl)c3cccnc23)C1` [SST0793AA1, 2H-Pyrido[3,2-h]-1,3-benzoxazine, 3-butyl-6-chloro-3,4-dihydro-], for which, in assay [1] (setting [4]), the “Effect on Gli1 protein” value is recorded as “++ (Gli1 protein level reduced (more than 50%) at 48 h compared to DMSO control)”. The IC50 in assay [2] (setting [5]) and in assay [3] (setting [6]) was 300 to 1000 nM in each case.
Take `CCCC(=O)NC(c1ccc(Cl)cc1Cl)c1cc(Cl)c2cccnc2c1O` (stereo not shown) [SST0689AA1, N-[(5-Chloro-8-hydroxy-quinolin-7-yl)-(2,4-dichlorophenyl)-methyl]-butyramide]: the “Effect on Gli1 protein” value in assay [1] (setting [4]) was “+++”. The IC50 in assay [2] (setting [5]) and in assay [3] (setting [6]) was 300 to 1000 nM throughout.
`Clc1cc2c(c3ncccc13)OCN(CCc1ccccc1)C2` [SST0794AA1, 2H-Pyrido[3,2-h]-1,3-benzoxazine, 6-chloro-3,4-dihydro-3-(2-phenylethyl)-]: in assay [1] (setting [4]), the “Effect on Gli1 protein” value was “++ (Gli1 protein level reduced (more than 50%) at 48 h compared to DMSO control)”. Also, the IC50 in assay [2] (setting [5]) and in assay [3] (setting [6]) was no more than 300 nM in each case.
Take `CCCC(=O)NC(c1ccc(C)cc1)c1cc(Cl)c2cccnc2c1O` (stereo not shown) [SST0773AA1, Butanamide, N-[(5-chloro-8-hydroxy-7-quinolinyl)(4-methylphenyl)methyl]-]: the “Effect on Gli1 protein” value in assay [1] (setting [4]) is on record as “+”. Besides, the IC50 in assay [2] (setting [5]) and in assay [3] (setting [6]) was 300 to 1000 nM throughout.
As to `CCCC(=O)NC(c1ccc(Cl)cc1Cl)c1ccc2cccnc2c1O` (stereo not shown) [SST0776AA1, Butanamide, N-[(2,4-dichlorophenyl)(8-hydroxy-7-quinolinyl)methyl]-], the “Effect on Gli1 protein” value in assay [1] (setting [4]) was “+++”. In addition, the IC50 in assay [2] (setting [5]) and in assay [3] (setting [6]) was no more than 300 nM in each case.
For the molecule `O=C1Oc2c(ccc3cccnc23)C(c2ccc(Cl)cc2Cl)N1CCc1ccccc1` (stereo not shown) [SST0826AA1, 4-(2,4-dichlorophenyl)-3-phenethyl-3,4-dihydro-2H-[1,3]oxazino[5,6-h]quinolin-2-one], in assay [1], the Gli1 protein level entry was “slight reduction in Gli1 protein level”.
With `c1cnc2c3c(ccc2c1)CN(C1CCCCCC1)CO3` [SST0913AA1, 3-cycloheptyl-3,4-dihydro-2H-[1,3]oxazino[5,6-h]quinoline], the “Effect on Gli1 protein” value in assay [1] (Table 2, new compounds) is “+”. Also, the IC50 in assay [2] (setting [8]) was 300 to 1000 nM; in assay [3] (setting [9]), no less than 1000 nM.
Take `c1ccc2c(c1)CCC(N1COc3c(ccc4cccnc34)C1)C2` (stereo not shown) [SST0893AA1, 3-(1,2,3,4-tetrahydronaphthalen-2-yl)-3,4-dihydro-2H-[1,3]oxazino[5,6-h]quinoline]: the “Effect on Gli1 protein” value in assay [1] (Table 2, new compounds) is on record as “+”. Further, the IC50 in assay [2] (setting [8]) and in assay [3] (setting [9]) was 300 to 1000 nM in each case.
With `COc1ccc(C(NC(C)=O)c2cc(Cl)c3cccnc3c2O)cc1OC` (stereo not shown) [SST0687AA1, N-[(5-Chloro-8-hydroxy-quinolin-7-yl)-(3,4-dimethoxy-phenyl)-methyl]-acetamide], the “Effect on Gli1 protein” value in assay [1] (setting [4]) is recorded as “+++”. Moreover, the IC50 in assay [2] (setting [5]) and in assay [3] (setting [6]) was 300 to 1000 nM throughout.
For `Clc1cc2c(c3ncccc13)OCN(CCC1=CCCCC1)C2` [SST0791AA1, 2H-Pyrido[3,2-h]-1,3-benzoxazine, 6-chloro-3-[2-(1-cyclohexen-1-yl)ethyl]-3,4-dihydro-], the “Effect on Gli1 protein” value in assay [1] (setting [4]) is recorded as “++ (Gli1 protein level reduced (more than 50%) at 48 h compared to DMSO control)”. Besides, the IC50 in assay [2] (setting [5]) and in assay [3] (setting [6]) was no more than 300 nM in each case.
Turning to `Fc1cnc2c3c(ccc2c1)CN(CCc1ccccc1)CO3` [SST0891AA1, 8-fluoro-3-phenethyl-3,4-dihydro-2H-[1,3]oxazino[5,6-h]quinoline], the Gli1 protein level result in assay [1] is reported as “comparable to that obtained with GANT61”. Besides, in assay [1] (Table 2, new compounds), the “Effect on Gli1 protein” value is on record as “+”. The IC50 in assay [2] (setting [8]) and in assay [3] (setting [9]) was no less than 1000 nM in each case.
For `c1cnc2c3c(ccc2c1)CN(CC1CCCCC1)CO3` [SST0912AA1, 3-(cyclohexylmethyl)-3,4-dihydro-2H-[1,3]oxazino[5,6-h]quinoline], the “Effect on Gli1 protein” value in assay [1] (Table 2, new compounds) is on record as “+”. For the same molecule, the values for the IC50 in assay [2] (setting [8]) and in assay [3] (setting [9]) were 300 to 1000 nM and no less than 1000 nM, respectively.
Turning to `COc1ccc(CN2COc3c(ccc4cccnc34)C2)cc1` [SST0910AA1, 3-(4-methoxybenzyl)-3,4-dihydro-2H-[1,3]oxazino[5,6-h]quinoline], in assay [1] (Table 2, new compounds), the “Effect on Gli1 protein” value is recorded as “+”. In addition, the IC50 in assay [2] (setting [8]) and in assay [3] (setting [9]) was 300 to 1000 nM in each case.
Take `c1ccc(CCN2COc3c(ccc4cccnc34)C2)cc1` [SST0823AA1, 3-phenethyl-3,4-dihydro-2H-[1,3]oxazino[5,6-h]quinoline]: the Gli1 protein level result in assay [1] was “drastic reduction of Gli1 protein level; also recorded: abolish Gli1 protein level”. Besides, the “Effect on Gli1 protein” value in assay [1] (Table 2, new compounds) is “+++”. Also, the IC50 in assay [2] (setting [8]) and in assay [3] (setting [9]) was no more than 300 nM each time.
On to `CCCCC(=O)NC(c1ccc(OC)c(OC)c1)c1ccc2cccnc2c1O` (stereo not shown) [SST0777AA1, Pentanamide, N-[(3,4-dimethoxyphenyl)(8-hydroxy-7-quinolinyl)methyl]], for which the “Effect on Gli1 protein” value in assay [1] (setting [4]) is given as “+++”. The IC50 in assay [2] (setting [5]) and in assay [3] (setting [6]) was 300 to 1000 nM each time.
For `CCCC(=O)NC(c1ccccc1Cl)c1cc(Cl)c2cccnc2c1O` (stereo not shown) [SST0775AA1, Butanamide, N-[(5-chloro-8-hydroxy-7-quinolinyl)(2-chlorophenyl)methyl]-], the “Effect on Gli1 protein” value in assay [1] (setting [4]) is on record as “+”. Moreover, the IC50 in assay [2] (setting [5]) and in assay [3] (setting [6]) was 300 to 1000 nM throughout.
With `Clc1cc2c(c3ncccc13)OCN(CCCN1CCOCC1)C2` [SST0792AA1, 2H-Pyrido[3,2-h]-1,3-benzoxazine, 6-chloro-3,4-dihydro-3-[3-(4-morpholinyl)propyl]-], the “Effect on Gli1 protein” value in assay [1] (setting [4]) is given as “+”. Also, the IC50 in assay [2] (setting [5]) was no more than 300 nM; in assay [3] (setting [6]), no less than 1000 nM.
